Consider three molecules from ChEMBL document CHEMBL5325475, “Discovery of a Potent and Selective Tyrosine Kinase 2 Inhibitor: TAK-279” (J Med Chem, 2023).

Broadly, the half-life is the time in which the quantity being followed falls by half. One may read the bioavailability as the share of a dose that reaches the circulation, judged against a reference dose that is usually intravenous. A low value points to poor availability.

Series [1] is described as follows: in vivo. To be noted: beagle, dog, po, 10 mg/kg.
A short description of series [2]: in vivo. To be noted: C57Bl/6, mouse, po, 10 mg/kg.
A short description of series [3]: in vivo. To be noted: Sprague-Dawley, rat, po, 10 mg/kg.
A short description of series [4]: in vivo. The note with it: cynomolgus monkey, po, 10 mg/kg.
The nature of series [5]: in vivo. To be noted: cynomolgus monkey, po, 10 mg/kg. This is another data set of the same source.
Series [6] can be described thus: in vivo. The note with it: C57Bl/6, mouse, po, 10 mg/kg. The source holds these as a separate data set.
The nature of series [7]: in vivo. The note with it: beagle, dog, po, 10 mg/kg. The source holds these as a separate data set.
Series [8] can be described thus: in vivo. The note with it: Sprague-Dawley, rat, po, 10 mg/kg. The source holds these as a separate data set.

As to `CNc1cc(Nc2cccn(-c3ncccc3F)c2=O)nc2c(C(=O)N[C@@H]3C[C@@H]3F)cnn12`, the half-life was 3 h in series [1], 2.7 h in series [3], 1.4 h in series [4] and 2.2 h in series [6]. Besides, the bioavailability was 52% in series [2], 97% in series [5], 51% in series [7] and 59% in series [8].
For the molecule `CNc1cc(Nc2cccn(-c3ncccc3F)c2=O)nc2c(C(=O)N[C@@H]3CC[C@H]3OC)cnn12`, the half-life in series [3] was 5.9 h; in series [6], 2.1 h. Moreover, the bioavailability in series [8] amounted to 30%.
Take `CNc1cc(Nc2cccn(-c3ccccn3)c2=O)nc2c(C(=O)N[C@H]3CC[C@@H]3OC)cnn12` (single isomer, unassigned): the half-life in series [1] was 5.3 h; in series [3], 1.2 h; in series [4], 3.8 h; in series [6], 2 h. In addition, the bioavailability in series [2] turned out to be 70%; in series [5] it was 47%; in series [7], 47%; in series [8], 37%.
